Assay results from ChEMBL document CHEMBL3507680, “University of Dundee, Gates Library screen for HepG2 cell viability”.

Experiment: Human HepG2 cell viability assay in 384 well format
Type: toxicity, cell-based
Set-up: dose 125 nL, time 70.5 hour; cytotoxicity at 70.5 h: concentration not given beside the values
Details: HepG2 cells, read-out: Inhibition

| Compound | cytotoxicity at 70.5 h [%] |
| --- | --- |
| CC(O)(CN1CCC2(CC1)OCCO2)c1cccc(C(F)(F)F)c1 (configuration not stated) | -4.13 |
| CCn1c(CN2CCN(C(=O)C3CCC3)CC2)nc2c(F)cccc21 | 1.75 |
| COC1CCN(C(=O)Cn2ncc(N3CCCCC3)cc2=O)C1 (configuration not stated) | -2.54 |
| CSCCC(C)(O)CNS(=O)(=O)Cc1cccc(C)c1 (configuration not stated) | -16.9 |
| CCC(NC(=O)c1cccc(N2CCCC2=O)c1)c1ccc(OC)cc1 (configuration not stated) | -4.2 |
| CN1CCN(C2CCN(Cc3nc(-c4ccoc4)no3)CC2)C1=O | -6.16 |
| O=C(NCc1ccccc1CO)C1COc2ccccc21 (configuration not stated) | -0.572 |
| COc1cccc(OCCc2nnc(NC(C)=O)s2)c1 | -6.24 |
| Cc1nc(-c2ccccc2)sc1CSC(C)C(N)=O (configuration not stated) | -1.25 |
| Cc1cc(C(=O)N2CC[C@H]3[C@@H]2CCC(=O)N3c2ccccc2)no1 | -8.05 |
| CC(C)C(=O)N1Cc2ccccc2CC2(CCCCN2C)C1 (configuration not stated) | -10.2 |
| OC1(Cn2ccc3ncccc32)CCN(Cc2cccnc2)CC1 | -2.24 |
| CCn1nccc1CNc1[nH]cnc2nncc1-2 | -20.2 |
| CN(C)C(=O)C1OC2(CCN(C(=O)c3ccco3)CC2)c2ccccc21 (configuration not stated) | -16.7 |
| O=C(c1ccc(-n2cnnc2)cc1)N1CCC(Nc2cccnn2)CC1 | -15.6 |
| CCCc1nc(C(C)(C)NC(=O)C2CC(=O)N(CC)C2)no1 (configuration not stated) | -13 |
| O=C(Nc1cccnc1)[C@H]1CN(Cc2ccccn2)C[C@H]2OCC[C@@H]12 | -7.69 |
| c1ccc(-c2nnn3c2COC(CNCC2CC2)C3)cc1 (configuration not stated) | -0.253 |
| Cc1cnc(N2C[C@@H]3[C@@H](C2)OCC(=O)N3CC(C)C)nc1 | 2.16 |
| CC1CCN(CCNC(=O)c2ccn(-c3ccc(F)cc3)n2)CC1 | -5.04 |
| O=C(NC[C@]12COC[C@H]1CN(Cc1cccnc1)C2)c1ccsc1 | 11.5 |
| CSCC(CCO)NC(=O)c1cccc(F)c1Cl (configuration not stated) | 24.5 |
| O=C(NCC(=O)N1CCCCC1)c1ccc(Cl)cc1I | -10.6 |

| Compound | cytotoxicity at 70.5 h [%] |
| --- | --- |
| NCCC1CN(Cc2cnc3c(-c4ccccc4)cnn3c2)CCO1 (configuration not stated) | -2.68 |
| COC(=O)[C@@H](NC(=O)c1coc(COc2cccc(F)c2F)n1)C(C)C | -11.7 |
| COCCCNC(=O)CN(C)C(=O)c1cc2cc(C)ccc2nc1C | 3.78 |
| Cc1nccc(-c2cccc(NCC(=O)N3CCNC(=O)C3)c2)n1 | -5.62 |
| CN1CCc2[nH]cnc2C12CCN(C(=O)CCc1cccs1)CC2 | 16.8 |
| O=C(NCc1ccccn1)[C@H]1COC[C@H]2CN(C3CCCC3)C[C@H]21 | 40.2 |
| CC(C)OCCC1CCCCN1S(N)(=O)=O (configuration not stated) | 10.9 |
| CSCC(=O)N[C@H]1CN(CC2CCOCC2)C[C@@H]1c1ccccc1 | -4.95 |
| O=c1cc(Cn2ccnc2)nc2n1CCCN(CC1CCOCC1)C2 | -19.5 |
| CN(Cc1cc(=O)c(O)co1)C1CCCN(c2ccccc2)C1 (configuration not stated) | 24.6 |
| CCN1CC2(CC1=O)CN(Cc1ccncc1)CCN(C(=O)C(C)C)C2 (configuration not stated) | 28.2 |
| c1cc(CC2CCCNC2)nc(NCCc2cnccn2)c1 (configuration not stated) | -11.1 |
| O=S1(=O)NCC2(CCN(Cc3ccc(Cl)s3)C2)Oc2ncccc21 (configuration not stated) | 17.2 |
| Cc1cc(C[S+]([O-])Cc2ccccc2F)on1 (configuration not stated) | -8.66 |
| Cc1ccc(S(=O)(=O)N2CC[C@@H](O)C2)c(F)c1 | -2.84 |
| OCCOCCNCC1(c2ccc(F)cc2)CCOC1 (configuration not stated) | -0.024 |
| CC(=O)N1CCCCC[C@@H]2[C@@H]1[C@H](c1cccc(F)c1)CN2C(=O)C1CC1 | -3.31 |
| O=C(C1CCC1)N1CCCn2nc(CNc3ncccn3)cc2C1 | 1.42 |
| COc1ccc(-c2nc(CNC3CCc4nc(C)nn4C3)no2)cc1 (configuration not stated) | -3.37 |
| CCn1cc(NC(=O)NCC(O)COc2cccc(F)c2)cn1 (configuration not stated) | -4.45 |
| CC(C)COC(=O)N1CCN(C(=O)c2ccc3nccn3c2)CC1 | 30.9 |
| Cc1nnc2ccc(N3CCC(C(=O)Nc4nccs4)CC3)nn12 | 1.41 |
| COC(=O)CCCNC(=O)N1CCc2c([nH]c3ccc(Cl)cc23)C1 | -6.07 |

| Compound | cytotoxicity at 70.5 h [%] |
| --- | --- |
| c1coc(CN2CCc3ncnc(C4CCOC4)c3CC2)c1 (configuration not stated) | -9.16 |
| NC(=O)c1nnn(-c2ccc(Cl)cc2)n1 | -5.31 |
| Cc1n[nH]c(C2CN(C(=O)CCOCC(F)(F)F)CCO2)n1 (configuration not stated) | -10.1 |
| CC(c1ccco1)N(C(=O)c1cc2c([nH]c1=O)CCCC2=O)C1CC1 (configuration not stated) | 2.68 |
| CS(=O)(=O)N1C[C@H](NC(=O)c2ccno2)[C@@H]2OCCC[C@@H]21 | -7.45 |
| CNC(=O)C1(c2cnccn2)CCCN1C(=O)c1ccccc1C (configuration not stated) | 15.3 |
| CC(=O)N(C)Cc1ccccc1NCc1c(C)noc1C | -3.61 |
| CN(C)[C@@H]1CCN(C(=O)Cc2ccc(F)cc2)[C@H]1Cc1cnn(C)c1 | -10.4 |
| CNC(=O)C1CCN(Cc2cc3c(cc2O)CCC3)CC1 | 27 |
| Cc1nc(CN2CCC(NS(C)(=O)=O)CC2)co1 | -9.09 |
| CC(C)N1CCc2[nH]nc(C(=O)N3CCN(C)CC3)c2C1 | -1.5 |
| CC(C)NC(=O)c1ccn(COc2c(Cl)cccc2Cl)n1 | -8.01 |
| CC(NCCc1nccn1Cc1ccccc1)c1ccsc1 (configuration not stated) | -10.7 |
| c1cc(CN2CCO[C@H]3[C@H](OCC4CCCC4)CC[C@@H]32)ccn1 | -5.29 |
| Cc1cccnc1NC(=O)C(C)Cn1nc(C(F)(F)F)cc1C (configuration not stated) | -4.08 |
| CC(=O)c1ccc(CN2C[C@@H](CN3CCC(O)CC3)[C@@H](CO)C2)cc1 | -2.46 |
| CC(C)(C(=O)N1CCCC(OCc2cccnc2)C1)n1cccc1 (configuration not stated) | -4.94 |
| CCNC(=O)CCS(=O)(=O)Cc1ccn(-c2cccc(F)c2)n1 | 2.48 |
| O=C(c1cccn1Cc1cccs1)N1CCCC1Cn1cccn1 (configuration not stated) | -20.8 |
| Cc1oc(C)c(C(=O)NCc2cccnc2N(C)C)c1C | -12.5 |
| CN(C)CC1CN(CC(=O)N2CCc3ccccc32)CCO1 (configuration not stated) | 11.8 |
| O=C(NCCn1nc(-n2cncn2)ccc1=O)c1ccc(F)cc1F | -5.23 |
| Cc1cc(F)c2c(c1)CCCN2Cc1nc2c(cnn2C)c(=O)[nH]1 | -28.1 |

| Compound | cytotoxicity at 70.5 h [%] |
| --- | --- |
| O=C(CN1CCOCC1)Nc1ccc(C(F)(F)F)cc1Cl | 14.6 |
| O=C(O)CC1COCCN1C(=O)C1(c2ccc(Cl)cc2)CCC1 (configuration not stated) | 5.66 |
| CCCS(=O)(=O)N1CCN(c2ccc3nnc(CC)n3n2)CC1 | -12.7 |
| CN(C)C(=O)c1cncnc1-c1ccc(CNC(=O)C2CCCO2)cc1 (configuration not stated) | 10.6 |
| COc1ccc(C2CC(=O)NCc3nc(N(C)C)sc32)c(O)c1 (configuration not stated) | 2.48 |
| Cc1ccc(C(=O)N2CCN3C[C@H](Oc4cccc(F)c4)C[C@H]3C2)cn1 | -2.95 |
| N#Cc1c(N2CCCCC2)nsc1-c1cccnc1 | 25 |
| CC1CN(C)CCN1C(=O)c1cnc2onc(CC(C)(C)C)c2c1 (configuration not stated) | -8.98 |
| Cc1n[nH]cc1CNCC(c1cccc(F)c1)N(C)C (configuration not stated) | -1.43 |
| CCOc1ccc(NC(=O)N2CCOC(C(N)=O)C2)cc1C (configuration not stated) | 1.77 |
| COCCOc1ccc(NC(=O)N(CC2CCOC2)C2CC2)cn1 (configuration not stated) | -2.98 |
| O=C(CCC1CCCCC1)NCc1nnc2ccccn12 | -1.08 |
| CC(=O)N1C[C@H](c2cc(O)nc(C)n2)[C@@H](c2ccccc2F)C1 | -2.65 |
| CCC(c1ccccc1)N1CCN(C(=O)c2cc(C(N)=O)c[nH]2)CC1 (configuration not stated) | -4.98 |
| O=C(NC1CCCC1)c1nc2c(o1)CN(CCO)C2 | -0.956 |
| O=C(CCC(=O)N1CCC(c2noc3cc(F)ccc23)CC1)NC1CC1 | 13.1 |
| CC(C)Cc1cc(NC(=O)N2CCC(Oc3cccnc3)C2)n(C)n1 (configuration not stated) | 5.38 |
| COc1ccc(C(C)N2CCC(C(=O)NC3CC3)CC2)cc1Cl (configuration not stated) | -7.15 |
| Cc1cccc(Oc2ccccc2CNC(=O)C2CCNC(=O)C2)c1 (configuration not stated) | -6.18 |
| Cc1nc2cc(O)nn2c(C)c1CCC(=O)N(C)Cc1cscn1 | 30.1 |
| Cn1ncc2c(N[C@@H]3CS(=O)(=O)C[C@H]3O)nc(C(C)(C)C)nc21 | -9.52 |
| CNC(=O)c1cn[nH]c1C1(C)CCCN(Cc2ccccc2OC)C1 (configuration not stated) | 3.23 |
| Cc1nn(CCCNC(=O)C2CCN(S(C)(=O)=O)CC2)cc1Cl | 36.7 |

| Compound | cytotoxicity at 70.5 h [%] |
| --- | --- |
| CC(c1ccco1)N(C)Cc1nc2c(cnn2C)c(=O)[nH]1 (configuration not stated) | -11.1 |
| Cc1ccc(C2CSCCN2C(=O)c2cccnc2)cc1 (configuration not stated) | -9.38 |
| COC(=O)CN(C(=O)c1ccc(-n2ccnc2)cc1)C1CC1 | -1.73 |
| Fc1ccccc1Cc1noc(CN2CCCC(CN3CCCC3)C2)n1 (configuration not stated) | -2.47 |
| COc1ccc(OC)c(CCNC(=O)NC(C)Cn2ccnc2)c1 (configuration not stated) | 22 |
| Cc1ccc(NC(=O)N2CC(C(=O)NC(C)C)C3(CCOCC3)C2)cc1 (configuration not stated) | -6.28 |
| Cc1cc(C(=O)N[C@@H]2CCNC[C@H]2O)ccc1Cl | -6.34 |
| CC(=O)N1CC(=O)N(c2ccccc2)CC12CCN(CC1CC1)C2 (configuration not stated) | 7.19 |
| CC(C)OCCCN(Cc1ccncc1)Cc1cc(F)ccc1F | -4.35 |
| CN(c1ccc(F)c(F)c1)S(=O)(=O)c1cc2c(c(C(=O)O)c1)OCCO2 | -7.51 |
| Cn1cc(NC(=O)C2CC(=O)N(c3n[nH]c4cccc(F)c34)C2)cn1 (configuration not stated) | -26.5 |
| Cc1cc(CCC(=O)NCc2ncc[nH]2)ccc1Br | -0.138 |
| CN(C(=O)c1cnc(N2CCOCC2)nc1)C1Cc2ccccc2C1 | -12.4 |
| CCOC1COC2(CCN(Cc3cccc(C)n3)CC2)C1 (configuration not stated) | 0.953 |
| COc1ccc2c(c1)C(=O)NC1(CC2)CCN(Cc2ccncc2)C1 (configuration not stated) | -0.942 |
| CC(C)n1ccc2c(C(=O)NC3CN4CCC3CC4)cccc21 (configuration not stated) | -17.6 |
| CCc1nnc2n1CCN(C(=O)c1cc3ccccc3[nH]1)C2 | -7.28 |
| CC(=O)N1CCN(c2ccccc2CNc2ccc(C)cn2)CC1 | -3.33 |
| O=C(NCCn1nc2ccccn2c1=O)c1cc(C2CC2)[nH]n1 | 2.27 |
| CN(Cc1ncnn1C)C(=O)CCCn1ccc2cc(Cl)ccc21 | -1.32 |
